Measured values as given in patent US20230149561A1, “Functionalized Nanoparticles and Their Use in Treating Bacterial Infections” (The Board of Trustees of the Leland Stanford Junior …, priority 2019, published 2023).
Converted amounts (≈) assume the structure as drawn.

Experiments:
[1] = tested on: Klebsiella pneumoniae CDC 0044; experiment: MIC and MBC against Meropenem-resistant Klebsiella; assay type: cell-based; settings: Meropenem-resistant strain, before combination
[2] = tested on: PA01 (chromosomally encoded luminescent) biofilm; assay type: cell-based, Pseudomonas aeruginosa; settings: 10-day-old PA01 biofilm, 24 hr treatment
Experimental: Biofilms of PA01 (10-day-old) were grown in the commercially available Calgary Biofilm Device (a 96-well plate)/minimum biofilm eradication concentration (MBEC) assay plate (46). […] Wells were washed with PBS and biofilms were disrupted with sonication and incubated in recovery media for turbidity measurements. A well was considered to have biofilm eradicated if the optical density at 650 nm (OD650) was less than 0.1 after 24 hours.

[3] = tested on: P. aeruginosa wild-type PA01 biofilm; experiment: MBEC Assay biofilm eradication, 48 h old PA01 biofilm; assay type: cell-based, Pseudomonas aeruginosa; settings: 24 h treatment
Experimental: (§1) (1-2) Bacteria culture is prepared and dispensed into a 96-well microplate. (3) The peg lid is placed in the bacteria culture and incubated to generate the biofilm. (4) The peg lid is gently rinsed to removed planktonic bacteria and a serial diluted test solution is dispensed into a new 96-well microplate. (5) The pegs covered in biofilm are incubated in the test solutions. (6) The peg lid is again gently rinsed to remove planktonic bacteria and placed in a new 96-well microplate containing recovery media. The peg lid is then sonicated to dislodge the biofilm into the recovery media. (7) Following sonication, the peg lid is replaced with a regular 96-well microplate lid and the plate containing recovery media is incubated. Following incubation, the OD650 absorbance is read on a spectrophotometer. Wells with an OD650 of less than 0.1 is evidence of biofilm eradication. (8) Spot plated on LB agar plates is use to confirm biofilm eradication.
(§2) Then, the minimum biofilm eradication concentration (MBEC) of FLOXIN®Otic against 48 h old PA01 and PA CSOM biofilms were determined using the commercially available MBEC Assay® (Innovotech Inc. Edmonton, Canada). […] Although PA CSOM produced quantitatively less biofilms than PAO1, it had the highest tolerance to ofloxacin. […]

[4] = tested on: stationary phase planktonic PA; experiment: Killing of stationary phase planktonic PA; assay type: cell-based, Pseudomonas aeruginosa; settings: 24 hr treatment, AuNC@CPP (16000 μg/mL), OFL (750 μg/mL)
[5] = tested on: PA CSOM logarithmic culture; experiment: Persistence assay, PA CSOM; assay type: cell-based, Pseudomonas aeruginosa; settings: ofloxacin 100 μg/mL, 24 h
Experimental: (§3) FIGS. 2A-2B: Increasing the fraction of persister cells promotes biofilm tolerance to ofloxacin. FIG. 2A) Susceptibility of surviving persister cells in logarithmic-phase culture. […] Data are presented as mean±s.d. (n=3). FIG. 2B) Comparison of persister cell fraction between PAO1 and PA CSOM in logarithmic-phase culture. Cells of logarithmic-phase were treated with ofloxacin ([…]) for 24 h and then plated for colony counting. The persister fraction was calculated as the ratio between the number of surviving bacteria after ofloxacin treatment compared to that measured in the corresponding untreated control (PBS). Data are presented as mean±s.d. (n=3). Statistical comparisons were done using a two-tailed t-test as indicated. ****p≤0.0001 and **p≤0.01.
(§4) PA01 and PA CSOM cultures were incubated at 37° C. with shaking. 1 mL of culture from each strain was aliquoted when reaching an OD600 of 0.3. Cultures were gently rinsed to remove LB medium and replaced with 1 mL of PBS. Ofloxacin (100 μg/mL) was added to the culture flasks (except for the control flasks). After 24 h incubation, ofloxacin was removed and the number of colony-forming units per milliliter (CFU/mL) was determined. […] The fraction of persister cells was calculated as the ratio of the CFU/mL after ofloxacin treatment to the CFU/mL of the control flasks.

PA01 = experiment: Minimum inhibitory concentration against PA01; assay type: cell-based; settings: Pseudomonas aeruginosa
PA CSOM = experiment: Minimum inhibitory concentration against PA CSOM; assay type: cell-based; settings: Pseudomonas aeruginosa
PA01 logarithmic culture = experiment: Persistence assay, PA01; assay type: cell-based, Pseudomonas aeruginosa; settings: ofloxacin 100 μg/mL, 24 h
Experimental: as §3, §4

[6] = tested on: P. aeruginosa clinical otopathogenic strain (PA CSOM) biofilm; experiment: MBEC Assay biofilm eradication, 48 h old PA CSOM biofilm; assay type: cell-based, Pseudomonas aeruginosa; settings: 24 h treatment
Experimental: as §1, §2

[7] = tested on: PA CSOM surviving persister cells, logarithmic-phase culture; experiment: Ofloxacin sensitivity of resuscitated persister cells in logarithmic-phase culture; assay type: cell-based, Pseudomonas aeruginosa; settings: ofloxacin 100 μg/mL, 24 h
Experimental: FIG. 8: Cartoon depicting the flowchart to evaluate ofloxacin sensitivity to persister cells resuscitation in logarithmic-phase culture. (1) Surviving persister cells following the treatment of PA CSOM biofilm with ofloxacin at 3000 μg/mL were replaced in fresh media and incubated at 37° C. and were aerated at 225 r.p.m. (2) Cells in logarithmic-phase (OD600=0.3) were treated with either phosphate-buffered saline (PBS) or ofloxacin (100 μg/mL) for 24 h. (3) following the treatment, cells were plated to determine the number of bacteria per milliliter (CFU/mL).
The drug-refractory state associated with PA CSOM biofilm formation is mediated by tolerance rather than resistance to the antibiotic.

biofilm = experiment: Biofilm eradication by cell-penetrating peptide alone; assay type: cell-based; settings: CPP alone, spot plated on LB agar
From the text: FIG. 20: Cell-penetrating peptide alone cannot eradicate the biofilm; the entire entity of AuNCs was required for biofilm eradication. […] Each spot represents an independent experiment (n=3).

C[C@@H](O)[C@H]1C(=O)N2C(C(=O)O)=C(S[C@@H]3CN[C@H](C(=O)N(C)C)C3)[C@H](C)[C@H]12 [Meropenem]
MBC [1]: > 200 µg/mL

CC1COc2c(N3CCN(C)CC3)c(F)cc3c(=O)c(C(=O)O)cn1c23 (centres unmarked) [ofloxacin]
MBEC [2]: 750 µg/mL
minimum biofilm eradication concentration (MBEC) [3]: 750 µg/mL
remaining CFU [4]: 10^3
fraction of persister cells [5]: 0.07%
MIC (PA01): 1.6 to 3.3 µg/mL (≈ 4.43 to 9.13 µM)
MIC (PA CSOM): 52.5 to 100 µg/mL (≈ 145 to 277 µM)
fraction of persister cells of total bacteria population (PA01 logarithmic culture): 0.0005%
minimum biofilm eradication concentration (MBEC) [6]: > 3000 µg/mL
decrease in number of bacteria per milliliter (CFU/mL) [7]: 3 log 10

Ac-(YGRKKRRQRRR SEQ ID NO:7)-(β-Ala)-(β-Ala)-(β-Ala)-Cys-CONH2 (N-acetyl, three beta-Ala, Cys amide; TAT cell-penetrating peptide) [CPP, cell-penetrating peptide alone, component of AuNC@CPP]
concentration without any biofilm eradication (biofilm): > 4000 µg/mL
